According to patent US12606554B2, “Compounds and pharmaceutical compositions thereof for the treatment of diseases” (ONCO3R Therapeutics BV, priority 2019, dated 2026):

Assays:
[1] = test system: LPS-induced TNFα in monocyte-derived macrophages (MdM); experiment: MdM assay: LPS-triggered TNFα (ELISA); format: cell-based; conditions: Homo sapiens, Macrophage, LPS 200 ng/mL, supernatant after 20 h
Experimental: (§1) SIK inhibition inhibits TNFα and increases IL-10 release in LPS triggered monocyte-derived macrophages (MdM) and dendritic cells (MdDCs) (Clark et al. 2012; Sundberg et al. 2014; Ozanne et al. 2015). This assay evaluates illustrative compounds of the invention for their inhibition of LPS-induced TNFα and LPS triggered IL-10 secretion in monocyte-derived macrophages.
(§2) PBMCs are isolated from human blood samples (buffycoats). The buffy coat is aseptically transferred into a 50 mL Falcon tube, and diluted ½ in PBS. Falcon tubes are filled with 20 mL Lymphoprep™, on top of which 25 mL of the buffy coat is carefully added, tubes are centrifuged for 35 min at 400 g in temperature controlled centrifuge, without brake, at 25° C. PBMCs are aspirated from the white interface layer between sample and Lymphoprep™. PBMCs are washed five times in PBS. Cells are resuspended in RPMI 1640 complete medium supplemented with 10% FBS, 1% P/S, and cell density is determined using a hematologic analyzer (Sysmex XS-500i).
PBMCs are centrifuged at 300×g for 10 min and resuspended at a density of 1.0*10^7 cells/80 μL Miltenyi buffer (PBS, pH 7.4, 1% FBS, 2 mM EDTA).
Starting from this point of the protocol all steps are performed on ice. 20 μL of CD14+ micro-beads are added per 1.0*10^7 cells, the tube is mixed and incubated for 15 min in the fridge at 4° C. Cell suspension volume is adjusted to total volume of 100 mL using Miltenyi buffer, mixed gently and subsequently centrifuged for 10 min at 300×g. Supernatant is discarded and cell pellet is resuspended in 12 mL of Miltenyi buffer.
Four LS columns are placed in the MACS Separator (magnet) from Miltenyi Biotec, and are prewet by rinsing with 3 mL of MACS buffer per column. […]
(§3) The columns are removed from the magnets, and 5 mL of Miltenyi buffer are added to the column to flush out the CD14+ fraction by pushing the plunger into the column. […] The obtained cell pellet is resuspended in 10 mL RPMI w/o FBS, and cell density is determined using a hematologic analyser (Sysmex XS-500i). […]

[2] = test system: LPS triggered IL-10 secretion in monocytes; experiment: Monocytes assay: LPS-triggered IL-10 (ELISA); format: cell-based, human; conditions: LPS 200 ng/mL, supernatant after 4 h, maximal fold change vs LPS only
Experimental: as §1, with “monocytes.” for “monocyte-derived macrophages.”
as §2, with “XS-500i). […]” for “XS-500i).”
as §3

EC50 [1] [nM] | SMILES | IL-10 FCmax median [2]
100 to 1000 | COc1cc(-c2cnn3cc(OC(C)(C)CN4CCOCC4)ccc23)cc(OC(F)F)c1C(=O)N[C@@H]1C[C@@H]1F [Cpd 3, 2-(difluoromethoxy)-4-[6-(1,1-dimethyl-2-morpholino-ethoxy)pyrazolo[1,5-a]pyridin-3-yl]-N-[(1R,2S)-2-fluorocyclopropyl]-6-methoxy-benzamide] | –
100 to 1000 | COc1cc(-c2cnn3cc(OC(C)(C)CO)ccc23)cc(OC(F)F)c1C(=O)N[C@@H]1C[C@@H]1F [Cpd 2, 2-(difluoromethoxy)-N-[(1R,2S)-2-fluorocyclopropyl]-4-[6-(2-hydroxy-1,1-dimethyl-ethoxy)pyrazolo[1,5-a]pyridin-3-yl]-6-methoxy-benzamide] | + (≤1.5)
100 to 1000 | COc1cc(-c2cnn3cc(OCCN4CCOCC4)ccc23)cc2c1C(=O)N(CC(F)(F)F)CC2 [Cpd 1, 8-methoxy-6-[6-(2-morpholinoethoxy)pyrazolo[1,5-a]pyridin-3-yl]-2-(2,2,2-trifluoroethyl)-3,4-dihydroisoquinolin-1-one] | +++ (>4.5)
